For 76 molecules, IC50 results are on record in PubChem BioAssay AID1645861 (Buhrlage Lab, Dana-Farber Cancer Institute and Novartis …, 2021).

In this experiment the target is Ubiquitin carboxyl-terminal hydrolase 7 (Homo sapiens) (UniProt Q93009). Nature of the experiment: Biochemical concentration-response for ubiquitin-specific peptidase 7 DUB inhibitors, verifying primary hits (AID 1645861). To be noted: purified USP7, Ub-rhodamine cleavage fluorescence, 60 min.

Each structure is given as a SMILES string. pIC50: −log10 of the molar value. Calls of active or inactive are those of the source.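 How the source made its calls: active means compounds whose peak USP7 inhibition across the dose series reached 30% or more; inactive means the rest.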 Bounds are passed on as bounds.

Ubiquitin carboxyl-terminal hydrolase 7 (Homo sapiens), sequence (Q93009 whole entry, looked up): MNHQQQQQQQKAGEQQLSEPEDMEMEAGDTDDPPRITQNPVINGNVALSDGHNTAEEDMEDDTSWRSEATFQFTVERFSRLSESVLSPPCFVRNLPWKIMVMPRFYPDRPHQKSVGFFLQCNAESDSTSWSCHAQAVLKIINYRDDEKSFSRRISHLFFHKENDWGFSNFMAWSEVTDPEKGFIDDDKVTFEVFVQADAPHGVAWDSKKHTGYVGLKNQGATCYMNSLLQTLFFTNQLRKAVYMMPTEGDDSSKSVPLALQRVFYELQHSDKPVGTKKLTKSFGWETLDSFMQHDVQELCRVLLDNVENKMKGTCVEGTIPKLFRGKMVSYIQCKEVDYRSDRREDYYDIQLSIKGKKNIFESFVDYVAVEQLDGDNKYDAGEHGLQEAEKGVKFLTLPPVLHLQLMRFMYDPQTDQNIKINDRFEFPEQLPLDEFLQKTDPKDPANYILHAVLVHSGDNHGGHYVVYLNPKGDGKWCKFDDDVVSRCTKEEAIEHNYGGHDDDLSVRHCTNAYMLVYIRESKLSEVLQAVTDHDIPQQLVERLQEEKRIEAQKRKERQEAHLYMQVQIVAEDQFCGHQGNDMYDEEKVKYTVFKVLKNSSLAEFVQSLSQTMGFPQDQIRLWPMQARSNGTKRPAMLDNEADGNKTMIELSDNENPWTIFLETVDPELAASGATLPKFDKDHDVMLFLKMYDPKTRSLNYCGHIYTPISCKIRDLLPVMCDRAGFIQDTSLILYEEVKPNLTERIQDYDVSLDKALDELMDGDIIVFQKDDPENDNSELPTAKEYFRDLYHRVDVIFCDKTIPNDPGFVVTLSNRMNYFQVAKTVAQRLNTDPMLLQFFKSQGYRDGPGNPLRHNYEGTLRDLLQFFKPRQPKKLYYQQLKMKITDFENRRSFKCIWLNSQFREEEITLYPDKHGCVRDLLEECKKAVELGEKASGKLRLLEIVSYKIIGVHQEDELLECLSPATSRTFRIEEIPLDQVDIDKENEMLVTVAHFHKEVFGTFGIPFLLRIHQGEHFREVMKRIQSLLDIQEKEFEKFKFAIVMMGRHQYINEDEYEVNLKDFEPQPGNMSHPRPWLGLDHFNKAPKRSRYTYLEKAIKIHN

By pIC50 is commonly meant the IC50 on a negative log10 scale, so that one unit is a factor of ten. Regarding `CC(C)=CCOC(C)(C)[C@H]1OC2CC[C@@]3(C)C(CCC4Cc5c([nH]c6ccccc56)[C@@]43C)C23OC3[C@@H]1O` (stereo partly specified), the pIC50 was 4.42.
As a reminder, the IC50 is the midpoint of a concentration-inhibition curve. With `O=C(NCc1ccc2c(c1)OCO2)c1cc2c(s1)CCC2`, the IC50 is > 50 µM (inactive).
On the same count and under the same terms, under `COc1cc2c(=O)n(Cc3ccccc3)c(=O)n(CC(=O)N3CCCc4ccccc43)c2cc1OC` stands > 50 µM (inactive).
Same read-out and setting: under `O=C(CCn1c(=O)c2ccccc2n(Cc2ccccc2F)c1=O)NCc1ccco1` stands > 50 µM (inactive).
Consider `Cc1ccc(NCc2cc3c(-c4cccc(F)c4)nn(-c4ccccc4)c3[nH]c2=O)cc1C`, for which the pIC50 was 5.05.
On the same count and under the same terms, under `O=C(Nc1ccccc1-c1nc2ccccc2[nH]1)c1sc2ccccc2c1Cl` stands 4.45.
Take `Cc1ccc(NC(=O)Cc2nnc3c(-c4nc(C5CC5)no4)cccn23)cc1`: the pIC50 is 4.45.
Regarding `COc1ccc(OC)c(-c2cn3ccn(-c4ccc(F)c(Cl)c4)c(=O)c3n2)c1`, the IC50 was > 50 µM (inactive).
On the same count and under the same terms, the value for `COc1cc(NC(=O)Cn2c(=O)n(-c3ccc(CC(=O)NCc4ccco4)cc3)c(=O)c3ccccc32)cc(OC)c1` was > 50 µM (inactive).
For the molecule `C=C/C(=C/C(=O)C[C@H](C)C[C@@H](C)CC[C@H](O)[C@H](C)C(=O)CC(O)[C@H](C)[C@@H](C)OC(=O)C[C@@H](O)C1=C(C)C(=O)OC1=O)CC` (stereo partly specified), the pIC50 is 4.37.
On the same count and under the same terms, under `COc1cc(O)c2c(O)c3c(cc2c1)C[C@@]1(O)CC(=O)C(C(N)=O)=C(O)[C@@]1(O)C3=O` stands 4.78.
In the case of `O=C(O)CCCCCN1C(=O)CC(c2ccc(Cl)cc2)CC1=O`, the IC50 is > 50 µM (inactive).
The same measure, in the same setting: under `CCc1nc(SCC(=O)Nc2ccc(Cl)c(Cl)c2)c2oc3ccccc3c2n1` stands > 50 µM (inactive); under `N#Cc1ccccc1NC(=O)c1cc2c(s1)-c1ccccc1S(=O)(=O)C2`, > 50 µM (inactive).
As for `O=c1cc(-c2ccc(O)c(O)c2)oc2cc(O[C@@H]3O[C@H](CO)[C@@H](O)[C@H](O)[C@H]3O)cc(O)c12`, the pIC50 is 6.15.
For `O=C(Cn1c(=O)c2sccc2n(CC(=O)OCc2ccccc2)c1=O)NCc1ccccc1Cl`, the IC50 is > 50 µM (inactive).
On the same count and under the same terms, under `COc1cc(OC)cc(N2C(=O)N(CC(=O)c3ccc(Br)cc3)c3ccccc3S2(=O)=O)c1` stands > 50 µM (inactive); under `Cc1nc(N2CCCC2)ncc1-c1cc(=O)[nH]c(Nc2ccc(Cl)cc2Cl)n1`, > 50 µM (inactive); under `O=C(NC1(O)C(=O)c2ccccc2C1=O)c1ccc(-c2csnn2)cc1`, > 50 µM (inactive).
Still for that read-out and setting: under `O=C(Nc1ccccc1F)c1nc(-c2cn(-c3ccc(F)cc3)nn2)no1` stands > 50 µM (inactive); under `CC(C)(C)C(=O)[C@@H]1[C@@H](C(=O)c2ccc3c(c2)OCO3)[C@@]2(C(=O)Nc3ccccc32)[C@H]2c3ccccc3C=CN12`, > 50 µM (inactive); under `CCOc1ccc2c(c1)c(=O)c(C(=O)c1ccccc1)cn2CC(=O)Nc1ccc2c(c1)OCCO2`, > 50 µM (inactive).
The same measure, in the same setting: the value for `COc1cccc(-n2cnc3cc(C(=O)NCCc4ccccc4)ccc3c2=O)c1` was > 50 µM (inactive).
With `Cc1ccc(C(=O)c2cn(CC(=O)Nc3ccc4c(c3)OCO4)c3ccccc3c2=O)cc1`, the IC50 was > 50 µM (inactive).
On the same count and under the same terms, the value for `O=C(NCc1ccco1)c1ccc(Cn2c(=O)c3sccc3n(Cc3cc(=O)n4ccccc4n3)c2=O)cc1` was > 50 µM (inactive); that for `Cc1ccc2c(c1)N(C)C(=O)c1cc(NC(=O)c3ccc(F)cc3)ccc1O2` was > 50 µM (inactive); that for `CCOC(=O)c1ccc(NC(=O)Cn2c(=O)n(-c3ccc(CC(=O)NCc4ccco4)cc3)c(=O)c3ccccc32)cc1` was > 50 µM (inactive).
The same measure, in the same setting: under `O=C1CSC(c2ccc3c(c2)OCO3)c2c(n(C3CCCCCC3)[nH]c2=O)N1` (stereo unspecified) stands > 50 µM (inactive); under `Cn1c2ccccc2c2ncn(CCCN3CCOCC3)c(=O)c21`, > 50 µM (inactive).
For the molecule `O=c1ccc(-c2cc3ccccc3o2)cn1Cc1ccccc1-c1ccccc1`, the pIC50 was 4.50.
Turning to `CSCCC(NC(=O)c1ccccc1)c1nc2ccccc2n1CC(=O)Nc1ccccc1` (stereo unspecified), the IC50 is > 50 µM (inactive).
On to `O=C(CCn1c(=O)c2ccccc2n(Cc2ccc(F)cc2Cl)c1=O)NCc1ccco1`, for which the IC50 is > 50 µM (inactive).
On the same count and under the same terms, the value for `Cc1cccc(OCCn2c(CCNC(=O)C3CCCCC3)nc3ccccc32)c1` was > 50 µM (inactive).
Same read-out and setting: under `Cc1cccc(NC(=O)CSc2nc3c(cc2C#N)C(=O)CCC3)c1` stands > 50 µM (inactive); under `CCCCN1Cc2sc(NC(=O)Nc3ccccc3C)nc2C1=O`, > 50 µM (inactive); under `N#Cc1c(-c2ccc(Cl)cc2)cc(-c2cccc(Br)c2)[nH]c1=O`, > 50 µM (inactive).
Still for that read-out and setting: under `O=C(Nc1ccccc1)[C@@H]1[C@@H]2C(=O)N(c3ccc([N+](=O)[O-])cc3)C(=O)[C@@H]2[C@H]2c3ccccc3C=CN12` stands > 50 µM (inactive); under `O=C(O)c1ccccc1C(=O)Nc1ccc(SC(C(=O)Nc2cccc(Cl)c2)c2ccccc2)cc1` (stereo unspecified), > 50 µM (inactive).
As for `O=C1Cc2ccccc2C(=O)N1Cc1cccc(Cl)c1`, the IC50 is > 50 µM (inactive).
On the same count and under the same terms, under `CC(=O)[C@H]1c2c(c(O)c3c(O)cccc3c2-c2c3c(c(O)c4c(O)cccc24)C(=O)C[C@](C)(O)[C@H]3C(C)=O)C(=O)C[C@]1(C)O` stands > 50 µM (inactive).
For the molecule `COc1ccc(-c2nc(SCC(=O)Oc3c(C)cccc3C)n3[nH]c(=O)cc3n2)cc1`, the IC50 was > 50 µM (inactive).
With `COc1cc(NC(=O)Cc2ccccc2)ccc1NC(=O)c1cc2ccccc2o1`, the IC50 is > 50 µM (inactive).
The same measure, in the same setting: under `COc1ccc2cc(C(=O)N3CCC(C(C)C(=O)NCc4cccc(F)c4)CC3)[nH]c2c1` (stereo unspecified) stands > 50 µM (inactive).
Regarding `O=C(CSc1oc(-c2ccc(F)cc2)nc1S(=O)(=O)c1ccc(F)cc1)Nc1ccc(F)cc1`, the IC50 is > 50 µM (inactive).
Still for that read-out and setting: the value for `Cc1ccc(Cn2cc(-c3noc(C(=O)Nc4cc(F)ccc4F)n3)nn2)cc1` was > 50 µM (inactive).
Still for that read-out and setting: under `O=C(CCCC(=O)N(c1ccc2c(c1)OCCO2)C(C(=O)NC1CCCCC1)c1ccc(F)cc1)Nc1ccccn1` (stereo unspecified) stands > 50 µM (inactive); under `CCCC(O)CCCCCCCc1cc(O)cc(O)c1C(=O)OC(CCC)CCCCCCCc1cc(O)cc(O)c1` (stereo unspecified), > 50 µM (inactive); under `COc1cccc(NC(=O)Cn2c3ccccc3n3c(=O)cc(-c4ccccc4)nc23)c1`, > 50 µM (inactive).
Regarding `O=C(CSc1nc2cc(C(F)(F)F)ccc2s1)NCC(=O)c1ccccc1`, the pIC50 is 4.45.
With `Cc1cc(C(=O)NC2(O)C(=O)c3ccccc3C2=O)n(C)n1`, the IC50 was > 50 µM (inactive).
Still for that read-out and setting: the value for `Cc1cc(C(F)(F)F)n2nc(C3CCN(C(=O)c4cnn(C)c4C)C3)cc2n1` (stereo unspecified) was > 50 µM (inactive); that for `O=C(CCCCCn1c(=O)c2sccc2n(CC(=O)c2ccc(Cl)c(Cl)c2)c1=O)NCc1ccc2c(c1)OCO2` was > 50 µM (inactive).
Still for that read-out and setting: under `COc1ccc(-c2cc(-c3ccccc3)nc(SCC(N)=O)c2C#N)cc1OC` stands > 50 µM (inactive); under `CCOc1ccc(NC(=O)Cn2c(=O)n(CCC(=O)NCc3ccco3)c(=O)c3ccccc32)cc1`, > 50 µM (inactive).
Still for that read-out and setting: the value for `Cc1ccc(Cn2c(=O)c3ncccc3n(CC(=O)NCc3ccc(F)cc3)c2=O)cc1` was > 50 µM (inactive).
Consider `COC(=O)c1ccc2c(=O)n(CCCCCC(=O)NCCc3ccccc3Cl)c(=O)[nH]c2c1`, for which the IC50 is > 50 µM (inactive).
The same measure, in the same setting: under `CCC(=O)Nc1nc2cc(NC(=O)Nc3cccc(C)c3)ccc2s1` stands > 50 µM (inactive).
On the same count and under the same terms, under `CCCCCC1OC(=O)c2c(C)cccc2Oc2ccc(O)c(C=O)c2/C=C/C1O` (stereo unspecified) stands > 50 µM (inactive).
For the molecule `CCC(=O)Nc1cccnc1-c1ccc(C(=O)Nc2ccc3c(c2)OCO3)cc1`, the IC50 is > 50 µM (inactive).
`COc1ccc(NC(=O)Cn2cc(C(=O)c3ccc(C)cc3)c(=O)c3ccccc32)cc1`: the IC50 is > 50 µM (inactive).
On the same count and under the same terms, the value for `COc1cc(O)cc2c1C(=O)OC(C)CCCCCCC2` (stereo unspecified) was > 50 µM (inactive).
`Cc1ccc(-c2nc(NC(=O)COc3ccc(Cl)cc3)no2)cc1`: the pIC50 is 4.65.
Still for that read-out and setting: the value for `Cn1nc(Cl)c(Cl)c1Oc1ccc(S(=O)(=O)Nc2ccc(Oc3ccc(C(F)(F)F)cn3)c(Cl)c2)cc1` was 4.33.
Take `COC(=O)c1ccc2c(=O)n(CCCCCC(=O)NCCc3ccc(S(N)(=O)=O)cc3)c(=O)[nH]c2c1`: the IC50 is > 50 µM (inactive).
Consider `O=C(Nc1cccc(Br)c1)c1cc(-c2cccnc2)n[nH]1`, for which the negative logarithm of the IC50 (pIC50) is 4.31.
The same measure, in the same setting: the value for `O=S(=O)(Nc1ccc(Oc2ncnc3cc(Cl)ccc23)nc1)c1ccc(S(=O)(=O)c2ccccc2)s1` was 4.30.
Regarding `COc1ccc(Nc2nc3c(S(=O)(=O)c4ccc(C)cc4)nnn3c3ccsc23)c(OC)c1`, the IC50 was > 50 µM (inactive).
For `O=c1[nH]c(C2CCN(S(=O)(=O)c3ccc(S(=O)(=O)NC4CCCC4)cc3)CC2)nc2c1nnn2Cc1cccc(Cl)c1`, the IC50 was > 50 µM (inactive).
As to `Cc1cccc(C(=O)Nc2cccc(SC(C(=O)Nc3ccc(Cl)c(C(=O)O)c3)c3ccccc3)c2)c1` (stereo unspecified), the pIC50 was 4.47.
As to `Cc1ccc(NC(=O)Cn2c(=O)n(CC(=O)NCc3ccco3)c(=O)c3ccccc32)cc1C`, the IC50 is > 50 µM (inactive).
`COc1ccc(OC)c(NC(=O)Cn2c(=O)n(C3CCCCC3)c(=O)c3ccccc32)c1`: the IC50 is > 50 µM (inactive).
The same measure, in the same setting: under `O=C1NC(=O)/C(=C/c2ccc(OC(=O)c3ccc(Cl)cc3Cl)cc2)N1` stands > 50 µM (inactive); under `O=C(CCCn1c(=O)[nH]c2cc(Cl)ccc2c1=O)NCCCN1CCCC1=O`, > 50 µM (inactive).
On the same count and under the same terms, the value for `O=c1[nH]c2ccc(S(=O)(=O)Nc3ccc(O)c4ccccc34)cc2[nH]1` was > 50 µM (inactive).
Same read-out and setting: the value for `COc1cc2c(=O)n(CCC(=O)NC3CCCC3)c(=O)n(CC(=O)Nc3cccc(Cl)c3)c2cc1OC` was > 50 µM (inactive); that for `CC(=O)Nc1ccc(NC(=O)c2ccc3c(c2)CC(c2ccccc2)OC3=O)cc1` (stereo unspecified) was > 50 µM (inactive).
